Patent US20260159511A1, “SMALL MOLECULE STING ANTAGONISTS” (CURADEV PHARMA PVT. LTD., priority 2021, published 2026)
Read-outs that look alike come from different tables or passages of the source.

Test system: IRF pathway in THP1-Dual™ cells, THP-1 (HAQ)
Assay: Reporter gene expression assay in THP-1 cells (THP1-Dual, IRF pathway Lucia luciferase reporter, 2′,3′-cGAMP stimulation)
Assay type: cell-based, human
Settings: THP1-Dual cells preincubated with compound 10 minutes, stimulation with 5 μM 2′,3′-cGAMP for 20 hr, QUANTI-Luc readout of the supernatant, read-out: THP-1 (HAQ) Activity (IC50 value range)
Method: Reporter Gene Expression Assay in THP-1 Cells
THP1-Dual™ cells (Invivogen) were derived from the human THP-1 monocyte cell line by stable integration of two inducible reporter constructs. As a result, THP1-Dual™ cells allow the simultaneous study of the IRF pathway, by assessing the activity of a secreted luciferase (Lucia) and the NF-κB pathway, by monitoring the activity of secreted SEAP. 5×10^4 THP1-Dual™ cells were seeded in 384-well plates in growth medium and preincubated with novel compounds for 10 minutes followed by stimulation with 5 μM 2′,3′-cGAMP. After 20 hr of stimulation the supernatant was removed and the IRF pathway reporter protein was readily measured in the cell culture supernatant using QUANTI-Luc™ (Invivogen), a luciferase detection reagent on a Spectramax i3X luminometer.

IC50 (Homo sapiens) | IC50 | SMILES
1000 to 10000 nM |  | COCCn1cc(-c2ccc3[nH]cc(NC(=O)Nc4ccc5c(c4)N(Cc4ccccc4)C(=O)CS5)c3c2)cn1 [Example 49, 1-(4-benzyl-3-oxo-3,4-dihydro-2H-benzo[b][1,4]thiazin-6-yl)-3-(5-(1-(2-methoxyethyl)-1H-pyrazol-4-yl)-1H-indol-3-yl)urea]
< 1000 nM |  | N#Cc1ccccc1CN1CCSc2cc(NC(=O)Nc3c[nH]c4ccccc34)ccc21 [Example 87, 1-(4-(2-cyanobenzyl)-3,4-dihydro-2H-benzo[b][1,4]thiazin-7-yl)-3-(1H-indol-3-yl)urea]
< 1000 nM |  | CC1CN(Cc2ccccc2)c2cc(NC(=O)Nc3c[nH]c4ccccc34)ccc2S1 (stereo not shown) [Example 83, 1-(4-benzyl-2-methyl-3,4-dihydro-2H-benzo[b][1,4]thiazin-6-yl)-3-(1H-indol-3-yl)urea]
1000 to 10000 nM |  | N#CCCn1cc(-c2ccc3[nH]cc(NC(=O)Nc4ccc5c(c4)N(Cc4ccccc4)C(=O)CS5)c3c2)cn1 [Example 52, 1-(4-benzyl-3-oxo-3,4-dihydro-2H-benzo[b][1,4]thiazin-6-yl)-3-(5-(1-(2-cyanoethyl)-1H-pyrazol-4-yl)-1H-indol-3-yl)urea]
< 1000 nM |  | O=C(Nc1ccc2c(c1)N(Cc1ccccc1)C(=O)CS2)Nc1c[nH]c2ccc(F)cc12 [Example 1, 1-(4-benzyl-3-oxo-3,4-dihydro-2H-benzo[b][1,4]thiazin-6-yl)-3-(5-fluoro-1H-indol-3-yl)urea]
< 1000 nM |  | O=C(Nc1ccc2c(c1)N(Cc1ccccc1)C(=O)CS2)Nc1c[nH]c2ccc(-c3cnn(C(F)F)c3)cc12 [Example 50, 1-(4-benzyl-3-oxo-3,4-dihydro-2H-benzo[b][1,4]thiazin-6-yl)-3-(5-(1-(difluoromethyl)-1H-pyrazol-4-yl)-1H-indol-3-yl)urea]
< 1000 nM |  | CCn1cc(-c2ccc3[nH]cc(NC(=O)Nc4ccc5c(c4)N(Cc4ccccc4)C(=O)CS5)c3c2)cn1 [Example 47, 1-(4-benzyl-3-oxo-3,4-dihydro-2H-benzo[b][1,4]thiazin-6-yl)-3-(5-(1-ethyl-1H-pyrazol-4-yl)-1H-indol-3-yl)urea]
< 1000 nM |  | CC1CN(Cc2ccccc2)c2ccc(NC(=O)Nc3c[nH]c4ccccc34)cc2S1 (stereo not shown) [Example 85, 1-(4-benzyl-2-methyl-3,4-dihydro-2H-benzo[b][1,4]thiazin-7-yl)-3-(1H-indol-3-yl)urea]
1000 to 10000 nM |  | O=C(Nc1ccc2c(c1)N(Cc1ccccc1)C(=O)CS2)Nc1c[nH]c2ccncc12 [Example 14, 1-(4-benzyl-3-oxo-3,4-dihydro-2H-benzo[b][1,4]thiazin-6-yl)-3-(1H-pyrrolo[3,2-c]pyridin-3-yl)urea]
< 1000 nM |  | O=C(Nc1ccc2c(c1)SCCN2Cc1ccccn1)Nc1c[nH]c2ccccc12 [Example 89, 1-(1H-indol-3-yl)-3-(4-(pyridin-2-ylmethyl)-3,4-dihydro-2H-benzo[b][1,4]thiazin-7-yl)urea]
1000 to 10000 nM |  | NC(=O)c1cccc(CN2C(=O)CSc3ccc(NC(=O)Nc4c[nH]c5ccccc45)cc32)c1 [Example 21, 3-((6-(3-(1H-indol-3-yl)ureido)-3-oxo-2,3-dihydro-4H-benzo[b][1,4]thiazin-4-yl)methyl)benzamide]
< 1000 nM |  | CC1Sc2ccc(NC(=O)Nc3c[nH]c4ccccc34)cc2N(Cc2c(F)cccc2Cl)C1=O (stereo not shown) [Example 27, 1-(4-(2-chloro-6-fluorobenzyl)-2-methyl-3-oxo-3,4-dihydro-2H-benzo[b][1,4]thiazin-6-yl)-3-(1H-indol-3-yl)urea]
< 1000 nM |  | O=C(Nc1ccc2c(c1)N(Cc1ccccc1)C(=O)CS2)Nc1c[nH]c2ccc(-c3cnoc3)cc12 [Example 66, 1-(4-benzyl-3-oxo-3,4-dihydro-2H-benzo[b][1,4]thiazin-6-yl)-3-(5-(isoxazol-4-yl)-1H-indol-3-yl)urea]
< 1000 nM |  | O=C(Nc1ccc2c(c1)N(Cc1cc(F)cc(F)c1)CCO2)Nc1c[nH]c2ccccc12 [Example 90, 1-(4-(3,5-difluorobenzyl)-3,4-dihydro-2H-benzo[b][1,4]oxazin-6-yl)-3-(1H-indol-3-yl)urea]
< 1000 nM |  | Cc1cccc(F)c1CN1CCSc2cc(NC(=O)Nc3c[nH]c4ccccc34)ccc21 [Example 82, 1-(4-(2-fluoro-6-methylbenzyl)-3,4-dihydro-2H-benzo[b][1,4]thiazin-7-yl)-3-(1H-indol-3-yl)urea]
< 1000 nM |  | CN1C(=O)CSc2ccc(NC(=O)Nc3c[nH]c4ccccc34)cc21 [Example 16, 1-(1H-indol-3-yl)-3-(4-methyl-3-oxo-3,4-dihydro-2H-benzo[b][1,4]thiazin-6-yl)urea]
< 1000 nM |  | O=C(Nc1ccc2c(c1)N(C(=O)c1ccccc1)CCS2)Nc1c[nH]c2ccccc12 [Example 79, 1-(4-benzoyl-3,4-dihydro-2H-benzo[b][1,4]thiazin-6-yl)-3-(1H-indol-3-yl)urea]

IC50 (Homo sapiens) | IC50 | SMILES
< 1000 nM |  | CC1Sc2cc(NC(=O)Nc3c[nH]c4ccccc34)ccc2N(Cc2ccccc2)C1=O (stereo not shown) [Example 30, 1-(4-benzyl-2-methyl-3-oxo-3,4-dihydro-2H-benzo[b][1,4]thiazin-7-yl)-3-(1H-indol-3-yl)urea]
< 1000 nM |  | O=C(Nc1ccc2c(c1)SCCN2Cc1c(F)cccc1F)Nc1c[nH]c2ccccc12 [Example 81, 1-(4-(2,6-difluorobenzyl)-3,4-dihydro-2H-benzo[b][1,4]thiazin-7-yl)-3-(1H-indol-3-yl)urea]
< 1000 nM |  | O=C(Nc1ccc2c(c1)N(Cc1ccccc1)C(=O)CS2)Nc1c[nH]c2ncccc12 [Example 13, 1-(4-benzyl-3-oxo-3,4-dihydro-2H-benzo[b][1,4]thiazin-6-yl)-3-(1H-pyrrolo[2,3-b]pyridin-3-yl)urea]
< 1000 nM |  | CC1CN(Cc2cc(F)cc(F)c2)c2cc(NC(=O)Nc3c[nH]c4ccc(F)cc34)ccc2S1 (stereo not shown) [Example 69, 1-(4-(3,5-Difluorobenzyl)-2-methyl-3,4-dihydro-2H-benzo[b][1,4]thiazin-6-yl)-3-(5-fluoro-1H-indol-3-yl)urea]
< 1000 nM |  | O=C(Nc1ccc2c(c1)N(Cc1cc(F)cc(F)c1)C(=O)CS2)Nc1c[nH]c2ccccc12 [Example 18, 1-(4-(3,5-difluorobenzyl)-3-oxo-3,4-dihydro-2H-benzo[b][1,4]thiazin-6-yl)-3-(1H-indol-3-yl)urea]
< 1000 nM |  | O=C(Nc1ccc2c(c1)N(Cc1ccccc1)CCS2)Nc1c[nH]c2cc(F)ccc12 [Example 98, 1-(4-benzyl-3,4-dihydro-2H-benzo[b][1,4]thiazin-6-yl)-3-(6-fluoro-1H-indol-3-yl)urea]
1000 to 10000 nM |  | O=C(Nc1ccc2c(c1)N(Cc1ccccc1)C(=O)CS2)Nc1c[nH]c2ccc(-c3cnn(CCO)c3)cc12 [Example 46, 1-(4-benzyl-3-oxo-3,4-dihydro-2H-benzo[b][1,4]thiazin-6-yl)-3-(5-(1-(2-hydroxyethyl)-1H-pyrazol-4-yl)-1H-indol-3-yl)urea]
< 1000 nM |  | O=C(Nc1ccc2c(c1)OCC(=O)N2Cc1c(F)cccc1Cl)Nc1c[nH]c2ccccc12 [Example 2, 1-(4-(2-Chloro-6-fluorobenzyl)-3-oxo-3,4-dihydro-2H-benzo[b][1,4]oxazin-7-yl)-3-(1H-indol-3-yl)urea]
1000 to 10000 nM |  | NC(=O)c1cccc(-c2ccc3[nH]cc(NC(=O)Nc4ccc5c(c4)N(Cc4ccccc4)C(=O)CS5)c3c2)c1 [Example 48, 3-(3-(3-(4-benzyl-3-oxo-3,4-dihydro-2H-benzo[b][1,4]thiazin-6-yl)ureido)-1H-indol-5-yl)benzamide]
 | < 1000 nM | CC1Sc2ccc(NC(=O)Nc3c[nH]c4ccccc34)cc2N(Cc2ccccc2)C1=O (stereo not shown) [Example 36, 1-(4-benzyl-2-methyl-3-oxo-3,4-dihydro-2H-benzo[b][1,4]thiazin-6-yl)-3-(1H-indol-3-yl)urea]
< 1000 nM |  | O=C(Nc1ccc2c(c1)N(Cc1ccccc1)CCS2)Nc1c[nH]c2ccc(F)cc12 [Example 99, 1-(4-benzyl-3,4-dihydro-2H-benzo[b][1,4]thiazin-6-yl)-3-(5-fluoro-1H-indol-3-yl)urea]
< 1000 nM |  | O=C(Nc1ccc2c(c1)N(Cc1ccccc1)C(=O)CS2)Nc1c[nH]c2ccc(-c3cccc(CO)c3)cc12 [Example 43, 1-(4-benzyl-3-oxo-3,4-dihydro-2H-benzo[b][1,4]thiazin-6-yl)-3-(5-(3-(hydroxymethyl)phenyl)-1H-indol-3-yl)urea]
< 1000 nM |  | CN1CCSc2ccc(NC(=O)Nc3c[nH]c4ccccc34)cc21 [Example 78, 1-(1H-indol-3-yl)-3-(4-methyl-3,4-dihydro-2H-benzo[b][1,4]thiazin-6-yl)urea]
< 1000 nM |  | O=C(Nc1ccc2c(c1)N(Cc1ccccc1)C(=O)CS2)Nc1c[nH]c2ccc(Br)cc12 [Example 112, 1-(4-benzyl-3-oxo-3,4-dihydro-2H-benzo[b][1,4]thiazin-6-yl)-3-(5-bromo-1H-indol-3-yl)urea]
< 1000 nM |  | N#Cc1ccc2[nH]cc(NC(=O)Nc3ccc4c(c3)N(Cc3ccccc3)CCS4)c2c1 [Example 109, 1-(4-benzyl-3,4-dihydro-2H-benzo[b][1,4]thiazin-6-yl)-3-(5-cyano-1H-indol-3-yl)urea]
1000 to 10000 nM |  | O=C(Nc1ccc2c(c1)N(Cc1ccccc1)C(=O)CS2)Nc1c[nH]c2ccc(-c3ccc(O)nc3)cc12 [Example 63, 1-(4-benzyl-3-oxo-3,4-dihydro-2H-benzo[b][1,4]thiazin-6-yl)-3-(5-(6-hydroxypyridin-3-yl)-1H-indol-3-yl)urea]
< 1000 nM |  | CC1CN(Cc2cc(F)cc(Cl)c2)c2cc(NC(=O)Nc3c[nH]c4ccc(F)cc34)ccc2S1 (stereo not shown) [Example 111, 1-(4-(3-chloro-5-fluorobenzyl)-2-methyl-3,4-dihydro-2H-benzo[b][1,4]thiazin-6-yl)-3-(5-fluoro-1H-indol-3-yl)urea]
